Patent US5753789A, “Oligonucleotides containing L-nucleosides” (priority 1996, dated 1998)
Where two headings read alike, the source gives them in different places.

How the values were obtained:
[1] = Cytotoxicity in H1 cells (cell count); format: cell-based; details: human
Protocol: (§1) Inhibitory effect of compounds on EBV: The CD50 was performed by
exposing H1 cells to different concentrations of the compounds in normal
growth medium at 37° C. for 72 hours; the cells were then counted
and compared with controls. H1 cells were treated for 5 days and the […]

EBV = test: Inhibitory effect of compounds on EBV (virus production in H1 cells, bioassay of EBV DP activity in Raji cells); format: cell-based, Epstein-Barr virus; details: for Therapeutic Index (CD50/ID90): CD50 in H1 cells / ID90 for EBV; for IC90: human gammaherpesvirus 4, Raji, 120 h, EBV, H1 cells treated for 5 days, bioassay, read-out: ID90 (the source's name)
Protocol: (§2) H1 cells were maintained in […] growth for two days prior to the initiation of treatment. The cells were centrifuged at 600 g for 10 min. at room temperature to separate them from the medium containing pre-existing virus particles. The H1 cells were seeded in 24 well plates at a density of 1×10^5 cells per well in 2 ml of fresh medium with or without drug and incubated at 37° C. for 5 days. The medium containing virion was saved and used for evaluating the inhibitory effect of drugs on virus production and infectivity by use of a bioassay. The virion were pelleted from the cell free medium by centrifugation at 45,000 rpm for 90 min. in a SW-50 Ti rotor (Beckman). The virion were resuspended in 1 ml growth medium and then used to infect 1×10^6 Raji cells for 48 hours. Since the level of EBV DP activity in Raji cells post superinfection is proportional to the number of virions added, the EBV specific DP activity induced was able to be measured. The inhibitory drug effect was calculated by comparing the EBV DP activity to multiple dilution controls.
as §1
and compared with controls. H1 cells were treated for 5 days and the
ID90 was determined by bioassay.

HBV = test: Biological activity against HBV in 2.2.15 cells (HBV DNA, Southern analysis); format: cell-based; details: Hepatitis B virus, 144 h, read-out: Anti-HBV Activity ID50
Protocol: Human hepatoma cells with HBV (2.2.15 cells) were used in the assay. These cells were grown to confluence in minimal essential medium with 10% fetal bovine serum. The media was changed at 3-day intervals. At confluence the treatment with the drugs was initiated and then continued for three days. Another addition of the same concentration of the drug was given at this point after removal of the media from the cultures and cultures maintained for an additional period of 3 days. The medium after the 6-day treatment was harvested and the viral particles precipitated by the polyethylene glycol method. The particles were subsequently digested and then processed for Southern analysis. The blots were hybridized to an HBV-specific probe and viral DNA amounts assessed in comparison to DNA levels from cultures not treated with the drugs. The genomic DNA was digested with Hind III and subjected to Southern analysis. Levels of the episomal DNA were determined in relation to the integrated HBV DNA. The drug concentrations that cause 50% inhibition of the DNA (ID50) as compared to the controls were calculated.

[2] = tested on: mitochondrial DNA content in H1 cells; test: Mitochondrial DNA content of H1 cells (slot blot assay); format: cell-based, human; details: 1 mM, 6 days
Protocol: as §2
Slot Blot Assay--The amount of mitochondrial DNA was measured by the slot blot method (2). […] The amount of mitochondrial DNA in the treated and non-treated H1 cells was quantified by densitometer (LKB Ultroscan XL).

[3] = Clearance of L-(-)-FMAU from plasma after oral administration; format: in vivo; details: mice, 10 or 50 mg/kg
Protocol: (§3) The clearance of L-(-)-FMAU from the plasma and liver of mice after oral administration was evaluated. Mice were […] with L-(-)-FMAU which was tritium labeled (radiospecificity of […]).
(§4) FIG. 11 is a graph of the plasma concentration of L-(-)-FMAU in mice after oral administration over time, and FIG. 12 is a graph of the concentration of L-(-)-FMAU in mouse liver after oral administration over time (cross, 10 mg/kg administered bid (bi-daily) for 30 days prior to pharmacokinetic study and then study carried out on day thirty-one on administration of same concentration; dark circle, 50 mg/kg administered bid for 30 days prior to study and then study carried out on day thirty-one on administration of same concentration; open circle, 50 mg/kg administered for the first time on the first day of the study).
(§5) At the times indicated (see FIGS. […]) the mice were bled from their retro-orbital sinus using heparinized capillaries. The plasma was extracted with trichloroacetic acid and neutralized with freon/trioctylamine. Supernatants were directly counted and the concentration calculated.

[4] = Clearance of L-(-)-FMAU from liver after oral administration; format: in vivo; details: mice, 10 or 50 mg/kg
Protocol: as §3, §4, §5

[5] = Toxicity in BDF1 female mice (body weight over thirty days); format: in vivo; details: 10 mg/kg and 50 mg/kg bid
Protocol: FIG. 13a illustrates the change in body weight over thirty days of control BDF1 female mice. FIGS. 13b and 13c illustrate the change in body weight over thirty days of BDFI female mice dosed with 10 mg/kg (13b) and 50 mg/kg (13c) bid of L-(-)-FMAU. The body weight presented represents the mean and standard deviation of that of five to seven mice.

[6] = Clinical chemistry of mouse plasma after L-(-)-FMAU treatment; format: in vivo; details: 10 or 50 mg/kg bid, thirty days
Protocol: FIGS. 14-20 provide the clinical chemistry of mouse plasma after administration of L-(-)-FMAU at 10 mg/kg (three mice) or 50 mg/kg (three mice) bid for thirty days.

[7] = Table I, read-out: (H1 cells) CD50
[8] = 37° C., 72 hours, Table 2, read-out: CD50

Row | Structure (SMILES) | CC50 at 72 h [1, 7] [µM] | Therapeutic Index (CD50/ID90) (EBV) | CC50 at 72 h [1, 8] [µM] | IC90 (EBV) [µM] | also measured
1 | CCc1cn([C@@H]2O[C@H](CO)[C@@H](O)[C@@H]2F)c(=O)[nH]c1=O [D-FEAU] | 2000 | 2000 |  |  | 
2 | Nc1nc2c(ncn2COCCO)c(=O)[nH]1 [ACV] |  | 20 | 1000 ± 75 |  | 
3 | O=c1[nH]c(=O)n([C@@H]2O[C@H](CO)[C@@H](O)[C@@H]2F)cc1I [D-FIAU] |  | 40 | 20 ± 4 | 0.5 ± 0.05 | 
4 | Cc1cn([C@@H]2O[C@H](CO)[C@@H](O)[C@@H]2F)c(=O)[nH]c1=O [D-FMAU] | 50 | 50 |  |  | IC50 (HBV): 2 µM
5 | Nc1nc(=O)n([C@@H]2O[C@H](CO)[C@@H](O)[C@@H]2F)cc1I [D-FIAC] |  | 25 | 125 ± 15 | 5 ± 0.5 | 
6 | Nc1nc(=O)n([C@H]2O[C@@H](CO)[C@H](O)[C@H]2F)cc1I [L-FIAC, 2'-fluoro-5-iodo-β-L-arabinofuranosylcytosine] |  | > 40 | 400 ± 35 | < 10 | 
7 | CCc1cn([C@H]2O[C@@H](CO)[C@H](O)[C@H]2F)c(=O)[nH]c1=O [L-FEAU, 2'-fluoro-5-ethyl-β-L-arabinofuranosyluridine] | 900 | 15 |  | 60 ± 11 | 
8 | Nc1nc2c(ncn2COC(CO)CO)c(=O)[nH]1 [DHPG] |  | 15 | 75 ± 6 |  | 
9 | O=c1[nH]c(=O)n([C@H]2O[C@@H](CO)[C@H](O)[C@H]2F)cc1I [L-FIAU, 2'-fluoro-5-iodo-β-L-arabinofuranosyluridine] |  | 12 | 240 ± 20 | 20 ± 4 | 
10 | Cc1cn([C@H]2O[C@@H](CO)[C@H](O)[C@H]2F)c(=O)[nH]c1=O [L-FMAU, 2'-fluoro-5-methyl-β-L-arabinofuranosyluridine] | 1000 | 200 |  |  | IC50 (HBV): 0.1 µM; Inhibition of mitochondrial DNA content [2]: No inhibition of mitochondrial DNA content in H1 cells was observed; Clearance from plasma [3]: substantially cleared from both plasma and liver after four hours; Time of peak concentration in plasma [3]: approximately one; Clearance from liver [4]: substantially cleared from both plasma and liver after four hours; Time of peak concentration in liver [4]: approximately one; Change in body weight [5]: did not appear to significantly affect the weight of the mice over thirty days; Tolerability [5]: well tolerated; ALT (SGPT) in mouse plasma [6]: With the exception of mouse 50-2 (for both SGOT and SGPT) and mouse 10-2 (for SGOT only), the enzyme levels of the treated mice are not different from those of the control mice; AST (SGOT) in mouse plasma [6]: With the exception of mouse 50-2 (for both SGOT and SGPT) and mouse 10-2 (for SGOT only), the enzyme levels of the treated mice are not different from those of the control mice; Creatinine in mouse plasma [6]: With the exception of mouse 50-2, the creatinine levels of the treated mice are not different from those of the control mice; Lactic acid in mouse plasma [6]: not significantly differnt from those of the control mice; Lactic dehydrogenase in mouse plasma [6]: not significantly differnt from those of the control mice; Alkaline phosphatase in mouse plasma ([6]; normal human level 30-114 U/L): somewhat higher than the normal human level; Total bilirubin in mouse plasma ([6]; normal human range less than 1.2 mg/dL): fall within the normal human range
11 | Nc1nc2c(ncn2CCC(CO)CO)c(=O)[nH]1 [PCV] |  | 25 | 500 ± 55 |  | 
12 | O=C(O)P(=O)(O)O [PFA] |  | 16 | 1200 ± 100 |  | 
